Assay results from the Kinase Knowledgebase extract (Sharma et al. 2016).
Blank lines part the entries; values can stand above or below the compound they belong to.

Assays:
[1] = target: PIK3CD (Human) (UniProt O00329); assay: Enzyme Assay
[2] = target: PIK3CG (human) (UniProt P48736); assay: Enzyme Assay
[3] = target: PIK3CA (human) (UniProt P42336); assay: Enzyme Assay
[4] = target: PIK3CD (Human) (UniProt O00329); assay: Cell-Based Assay; conditions: rat-1
[5] = target: PIK3CA (human) (UniProt P42336); assay: Cell-Based Assay; conditions: rat-1

Sequence of PIK3CD (Human) (O00329 whole entry, looked up): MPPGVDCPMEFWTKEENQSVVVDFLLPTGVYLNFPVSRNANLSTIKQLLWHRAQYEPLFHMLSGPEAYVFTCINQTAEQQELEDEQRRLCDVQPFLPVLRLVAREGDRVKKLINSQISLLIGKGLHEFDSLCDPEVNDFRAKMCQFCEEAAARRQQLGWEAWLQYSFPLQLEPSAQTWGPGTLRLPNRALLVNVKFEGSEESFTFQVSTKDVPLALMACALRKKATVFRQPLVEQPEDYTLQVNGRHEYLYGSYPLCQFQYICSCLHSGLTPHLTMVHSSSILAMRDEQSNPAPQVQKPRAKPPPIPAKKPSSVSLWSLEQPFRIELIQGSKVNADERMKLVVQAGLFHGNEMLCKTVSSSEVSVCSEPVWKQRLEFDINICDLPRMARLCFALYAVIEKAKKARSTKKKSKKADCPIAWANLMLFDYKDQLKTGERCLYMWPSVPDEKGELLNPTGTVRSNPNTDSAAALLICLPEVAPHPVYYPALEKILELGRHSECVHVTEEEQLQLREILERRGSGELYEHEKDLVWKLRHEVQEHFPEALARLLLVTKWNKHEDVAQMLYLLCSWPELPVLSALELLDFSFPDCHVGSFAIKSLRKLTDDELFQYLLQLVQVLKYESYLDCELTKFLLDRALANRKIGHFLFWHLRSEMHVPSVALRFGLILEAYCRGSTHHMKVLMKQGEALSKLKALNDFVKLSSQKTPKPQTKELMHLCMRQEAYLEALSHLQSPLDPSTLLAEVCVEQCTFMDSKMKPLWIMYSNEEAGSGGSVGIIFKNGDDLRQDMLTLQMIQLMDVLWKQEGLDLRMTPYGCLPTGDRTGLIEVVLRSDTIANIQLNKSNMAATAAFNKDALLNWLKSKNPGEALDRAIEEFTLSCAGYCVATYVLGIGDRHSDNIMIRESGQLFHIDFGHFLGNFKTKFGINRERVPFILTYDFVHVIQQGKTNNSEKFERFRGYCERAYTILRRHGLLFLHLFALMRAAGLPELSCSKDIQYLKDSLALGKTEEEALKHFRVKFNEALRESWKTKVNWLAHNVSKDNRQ
Sequence of PIK3CG (human) (P48736 whole entry, looked up): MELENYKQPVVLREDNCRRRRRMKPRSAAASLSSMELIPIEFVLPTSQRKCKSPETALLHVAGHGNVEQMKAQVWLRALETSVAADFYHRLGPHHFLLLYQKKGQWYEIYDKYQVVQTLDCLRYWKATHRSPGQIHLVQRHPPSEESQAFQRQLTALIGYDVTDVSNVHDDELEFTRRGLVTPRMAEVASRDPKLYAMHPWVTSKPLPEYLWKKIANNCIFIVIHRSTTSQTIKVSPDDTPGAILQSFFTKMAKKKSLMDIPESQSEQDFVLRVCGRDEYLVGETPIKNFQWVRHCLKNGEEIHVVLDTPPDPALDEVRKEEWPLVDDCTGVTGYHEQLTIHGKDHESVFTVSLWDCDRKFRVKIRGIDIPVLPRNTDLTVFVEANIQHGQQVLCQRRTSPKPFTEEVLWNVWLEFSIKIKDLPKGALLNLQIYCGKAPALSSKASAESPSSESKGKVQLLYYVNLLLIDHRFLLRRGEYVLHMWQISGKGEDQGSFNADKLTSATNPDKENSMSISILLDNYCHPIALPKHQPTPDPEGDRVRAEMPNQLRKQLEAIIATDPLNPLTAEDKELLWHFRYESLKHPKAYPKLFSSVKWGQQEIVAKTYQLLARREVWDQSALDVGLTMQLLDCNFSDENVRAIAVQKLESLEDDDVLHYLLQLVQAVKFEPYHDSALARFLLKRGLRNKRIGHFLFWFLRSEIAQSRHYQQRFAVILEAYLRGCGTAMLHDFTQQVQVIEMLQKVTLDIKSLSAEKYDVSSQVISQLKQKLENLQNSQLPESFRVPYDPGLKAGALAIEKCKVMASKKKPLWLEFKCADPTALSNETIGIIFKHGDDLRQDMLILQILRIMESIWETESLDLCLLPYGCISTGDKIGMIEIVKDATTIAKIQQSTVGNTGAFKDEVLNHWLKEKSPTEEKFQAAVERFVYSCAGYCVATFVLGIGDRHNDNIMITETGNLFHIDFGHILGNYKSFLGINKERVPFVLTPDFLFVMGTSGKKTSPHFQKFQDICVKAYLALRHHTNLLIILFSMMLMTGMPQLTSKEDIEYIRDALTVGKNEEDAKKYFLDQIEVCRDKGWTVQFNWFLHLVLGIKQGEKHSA
Sequence of PIK3CA (human) (P42336 whole entry, looked up): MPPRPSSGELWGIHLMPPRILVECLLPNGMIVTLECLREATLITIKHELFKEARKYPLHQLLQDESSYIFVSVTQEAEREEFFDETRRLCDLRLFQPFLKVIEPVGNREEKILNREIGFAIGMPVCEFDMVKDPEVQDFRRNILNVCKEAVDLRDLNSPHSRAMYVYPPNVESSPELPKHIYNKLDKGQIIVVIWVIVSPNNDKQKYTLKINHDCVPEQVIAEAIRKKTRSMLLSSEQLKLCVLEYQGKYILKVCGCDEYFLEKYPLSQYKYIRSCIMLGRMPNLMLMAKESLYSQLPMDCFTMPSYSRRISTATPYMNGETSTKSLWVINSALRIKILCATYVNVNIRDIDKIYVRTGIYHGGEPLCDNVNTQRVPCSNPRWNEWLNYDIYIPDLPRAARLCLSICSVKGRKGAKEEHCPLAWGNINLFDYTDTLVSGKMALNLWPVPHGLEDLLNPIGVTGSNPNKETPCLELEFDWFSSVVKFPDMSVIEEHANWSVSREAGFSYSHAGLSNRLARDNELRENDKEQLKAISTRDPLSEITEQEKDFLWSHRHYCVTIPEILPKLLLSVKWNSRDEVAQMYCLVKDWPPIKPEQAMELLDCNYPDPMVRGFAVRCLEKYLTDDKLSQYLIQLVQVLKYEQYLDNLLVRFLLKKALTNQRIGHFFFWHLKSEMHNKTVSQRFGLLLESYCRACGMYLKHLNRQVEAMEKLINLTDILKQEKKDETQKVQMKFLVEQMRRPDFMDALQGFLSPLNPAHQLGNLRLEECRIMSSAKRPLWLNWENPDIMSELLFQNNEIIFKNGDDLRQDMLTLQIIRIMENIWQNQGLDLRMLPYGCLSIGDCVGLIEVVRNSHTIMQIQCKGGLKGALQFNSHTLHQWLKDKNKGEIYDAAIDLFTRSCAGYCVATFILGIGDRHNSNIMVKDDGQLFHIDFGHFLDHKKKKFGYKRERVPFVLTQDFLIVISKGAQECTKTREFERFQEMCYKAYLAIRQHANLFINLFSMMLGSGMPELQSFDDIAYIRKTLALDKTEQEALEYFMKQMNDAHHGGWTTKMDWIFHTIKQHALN

Structure (SMILES): O=c1c2c(Cl)cccc2nc([C@@H]2CSCN2c2ncnc3[nH]cnc23)n1-c1ccccc1C1CC1
IC50 [4]: 142 nM
IC50 [5]: 7140 nM
IC50 [1]: 21 nM
IC50 [2]: 340 nM
IC50 [3]: 7900 nM

Structure (SMILES): COC(=O)N1CC[C@@H](n2c([C@@H]3CCCN3c3ncnc4[nH]cnc34)nc3cccc(Cl)c3c2=O)C1
IC50 [4]: 2350 nM
IC50 [5]: > 10000 nM
IC50 [1]: 200 nM
IC50 [2]: > 10000 nM
IC50 [3]: > 10000 nM

Structure (SMILES): Cn1nccc1-n1c([C@@H]2CSCN2c2ncnc(N)c2C#N)nc2cccc(Cl)c2c1=O
IC50 [4]: > 10000 nM
IC50 [5]: > 10000 nM
IC50 [1]: 7200 nM
IC50 [2]: > 10000 nM
IC50 [3]: > 10000 nM

Structure (SMILES): Cc1ccc(-n2c([C@@H]3CSCN3c3ncnc4[nH]cnc34)nc3cccc(Cl)c3c2=O)s1
IC50 [4]: 509 nM
IC50 [5]: > 10000 nM
IC50 [1]: 140 nM
IC50 [2]: 820 nM
IC50 [3]: > 10000 nM

Structure (SMILES): Cc1ccc(-n2c([C@@H]3CSCN3c3ncnc(N)c3C#N)nc3cccc(Cl)c3c2=O)s1
IC50 [4]: 262 nM
IC50 [5]: > 10000 nM
IC50 [1]: 82 nM
IC50 [2]: 1100 nM
IC50 [3]: > 10000 nM

Structure (SMILES): Cc1ccccc1-n1c([C@@H]2CCON2c2ncnc3[nH]cnc23)nc2cccc(Cl)c2c1=O
IC50 [4]: 2480 nM
IC50 [5]: > 10000 nM
IC50 [1]: 100 nM
IC50 [2]: 1200 nM
IC50 [3]: > 10000 nM

Structure (SMILES): Cc1nc(N)nc(N2CCC[C@H]2c2nc3cc(F)cc(F)c3c(=O)n2-c2ccccc2)c1C#N
IC50 [4]: 148 nM
IC50 [5]: > 10000 nM
IC50 [1]: 73 nM
IC50 [2]: 3100 nM
IC50 [3]: 5600 nM

Structure (SMILES): O=c1c2c(Cl)cccc2nc([C@@H]2CCCN2c2ncnc3[nH]cnc23)n1N1CCOCC1
IC50 [4]: 80 nM
IC50 [5]: > 10000 nM
IC50 [1]: 35 nM
IC50 [2]: 140 nM
IC50 [3]: 2800 nM

Structure (SMILES): Cc1nc(N)nc(N2CCC[C@H]2c2nc3cccc(Cl)c3c(=O)n2C2CC2)c1C#N
IC50 [4]: 61 nM
IC50 [5]: 1160 nM
IC50 [1]: 31 nM
IC50 [2]: 110 nM
IC50 [3]: 930 nM

Structure (SMILES): COc1ccc(-n2c([C@@H]3CCCN3c3ncnc4[nH]cnc34)nc3cccc(Cl)c3c2=O)cn1
IC50 [4]: 1400 nM
IC50 [5]: > 10000 nM
IC50 [1]: 660 nM
IC50 [2]: 1900 nM
IC50 [3]: > 10000 nM

Structure (SMILES): N#Cc1c(N)ncnc1N1CCC[C@H]1c1nc2ccc(F)c(F)c2c(=O)n1-c1ccccc1
IC50 [4]: < 3 nM
IC50 [5]: > 10000 nM
IC50 [1]: 90 nM
IC50 [2]: 2300 nM
IC50 [3]: 5550 nM

Structure (SMILES): N#Cc1c(N)ncnc1N1CCC[C@H]1c1nc2cccc(Cl)c2c(=O)n1N1CCCCC1
IC50 [4]: 278 nM
IC50 [5]: > 10000 nM
IC50 [1]: 120 nM
IC50 [2]: 3200 nM
IC50 [3]: > 10000 nM

Structure (SMILES): O=c1c2c(Cl)cccc2nc([C@@H]2CCCN2c2ncnc3[nH]cnc23)n1-c1cccnc1
IC50 [4]: 84 nM
IC50 [5]: > 10000 nM
IC50 [1]: 20 nM
IC50 [2]: 170 nM
IC50 [3]: 3300 nM

Structure (SMILES): Cn1cnc2c(N3CCC[C@H]3c3nc4cccc(Cl)c4c(=O)n3C3CC3)nc(N)nc21
IC50 [4]: 894 nM
IC50 [5]: 5460 nM
IC50 [1]: 1430 nM
IC50 [2]: 445 nM
IC50 [3]: 5950 nM

Structure (SMILES): COc1ccc(-n2c([C@@H]3CCCN3c3nc(N)nc4[nH]cnc34)nc3cccc(Cl)c3c2=O)cn1
IC50 [4]: 651 nM
IC50 [5]: > 10000 nM
IC50 [1]: 270 nM
IC50 [2]: 220 nM
IC50 [3]: 8400 nM

Structure (SMILES): CC1(n2c([C@@H]3CCCN3c3nc(N)nc4[nH]cnc34)nc3cccc(Cl)c3c2=O)CC1
IC50 [4]: 32 nM
IC50 [5]: 3300 nM
IC50 [1]: 26 nM
IC50 [2]: 58 nM
IC50 [3]: 1030 nM

Structure (SMILES): O=c1c2c(Cl)cccc2nc([C@@H]2CCCN2c2ncnc3[nH]cnc23)n1[C@@H]1CCN(S(=O)(=O)C2CC2)C1
IC50 [5]: > 10000 nM
IC50 [1]: 510 nM
IC50 [2]: 5600 nM
IC50 [3]: > 10000 nM

Structure (SMILES): CO[C@H]1C[C@@H](c2nc3cccc(Cl)c3c(=O)n2C2CC2)N(c2nc(N)nc(C)c2C#N)C1
IC50 [4]: 73 nM
IC50 [5]: 3540 nM
IC50 [1]: 104 nM
IC50 [2]: 220 nM
IC50 [3]: 1320 nM

Structure (SMILES): CO[C@H]1C[C@@H](c2nc3cccc(Cl)c3c(=O)n2N2CCOCC2)N(c2ncnc(N)c2C#N)C1
IC50 [4]: 32 nM
IC50 [5]: > 10000 nM
IC50 [1]: 66 nM
IC50 [2]: 380 nM
IC50 [3]: 4000 nM

Structure (SMILES): CO[C@H]1C[C@@H](c2nc3cccc(Cl)c3c(=O)n2N2CCOCC2)N(c2nc(N)nc(C)c2C#N)C1
IC50 [4]: 29 nM
IC50 [5]: > 10000 nM
IC50 [1]: 23 nM
IC50 [2]: 53 nM
IC50 [3]: 1230 nM

Structure (SMILES): Cc1nc(N)c(C#N)c(N2CCC[C@H]2c2nc3cccc(C(F)(F)F)c3c(=O)n2-c2ccccc2)n1
IC50 [4]: > 10000 nM
IC50 [5]: > 10000 nM
IC50 [1]: 43 nM
IC50 [2]: > 10000 nM
IC50 [3]: > 10000 nM

Structure (SMILES): CS(=O)(=O)N1CC[C@@H](n2c([C@@H]3CCCN3c3ncnc4[nH]cnc34)nc3cccc(Cl)c3c2=O)C1
IC50 [5]: > 10000 nM
IC50 [1]: 210 nM
IC50 [2]: 3700 nM
IC50 [3]: > 10000 nM

Structure (SMILES): O=c1c2c(Cl)cccc2nc([C@@H]2CCON2c2ncnc3[nH]cnc23)n1-c1ccccc1
IC50 [4]: 1810 nM
IC50 [5]: > 10000 nM
IC50 [1]: 150 nM
IC50 [2]: 980 nM

Structure (SMILES): Cn1nccc1-n1c([C@@H]2CSCN2c2ncnc3[nH]cnc23)nc2cccc(Cl)c2c1=O
IC50 [4]: 222 nM
IC50 [5]: > 10000 nM
IC50 [1]: 56 nM
IC50 [2]: 420 nM

Stronger by IC50 [1], values ahead:

IC50 [4]: 57 nM
IC50 [5]: > 10000 nM
IC50 [1]: 18 nM
IC50 [2]: 202 nM
IC50 [3]: 2940 nM
Structure (SMILES): O=c1c2c(Cl)cccc2nc([C@@H]2CSCN2c2ncnc3[nH]cnc23)n1-c1ccccc1

IC50 [4]: 42 nM
IC50 [5]: 2090 nM
IC50 [1]: 17 nM
IC50 [2]: 49 nM
IC50 [3]: 370 nM
Structure (SMILES): Cc1nc(N)nc(N2CCC[C@H]2c2nc3ccc(F)c(C)c3c(=O)n2-c2ccccc2)c1C#N

IC50 [1]: 15 nM
IC50 [2]: 31 nM
IC50 [3]: 1000 nM
Structure (SMILES): Nc1nc(N2C[C@@H](O)C[C@H]2c2nc3cccc(Cl)c3c(=O)n2-c2ccccc2)c2nccn2n1

IC50 [4]: 12 nM
IC50 [5]: 4590 nM
IC50 [1]: 14 nM
IC50 [2]: 150 nM
IC50 [3]: 7700 nM
Structure (SMILES): N#Cc1c(N)ncnc1N1CCC[C@H]1c1nc2cccc(Cl)c2c(=O)n1-c1cccnc1

IC50 [4]: < 3 nM
IC50 [5]: > 10000 nM
IC50 [1]: 14 nM
IC50 [2]: 41 nM
IC50 [3]: 600 nM
Structure (SMILES): Cc1nc(N)nc(N2CCC[C@H]2c2nc3ccc(F)c(F)c3c(=O)n2-c2ccccc2)c1C#N

IC50 [4]: 25 nM
IC50 [5]: 7160 nM
IC50 [1]: 11 nM
IC50 [2]: 120 nM
IC50 [3]: 700 nM
Structure (SMILES): Cc1c(F)ccc2nc([C@@H]3CCCN3c3ncnc(N)c3C#N)n(-c3ccccc3)c(=O)c12

IC50 [4]: 20 nM
IC50 [5]: > 10000 nM
IC50 [1]: 11 nM
IC50 [2]: 200 nM
IC50 [3]: 1600 nM
Structure (SMILES): N#Cc1c(N)ncnc1N1CCC[C@H]1c1nc2cccc(Cl)c2c(=O)n1N1CCOCC1

IC50 [4]: 38 nM
IC50 [5]: 4470 nM
IC50 [1]: 11 nM
IC50 [2]: 148 nM
IC50 [3]: 6820 nM
Structure (SMILES): Cc1ccccc1-n1c([C@@H]2CSCN2c2ncnc(N)c2C#N)nc2cccc(Cl)c2c1=O

IC50 [4]: 3 nM
IC50 [5]: > 10000 nM
IC50 [1]: 8 nM
IC50 [2]: 66 nM
IC50 [3]: 1800 nM
Structure (SMILES): N#Cc1c(N)ncnc1N1C[C@@H](O)C[C@H]1c1nc2cccc(C(F)(F)F)c2c(=O)n1-c1ccccc1

IC50 [4]: 36 nM
IC50 [5]: > 10000 nM
IC50 [1]: 8 nM
IC50 [2]: 280 nM
IC50 [3]: 4700 nM
Structure (SMILES): N#Cc1c(N)ncnc1N1CCC[C@H]1c1nc2cccc(Cl)c2c(=O)n1C1CCOCC1

IC50 [4]: 57 nM
IC50 [5]: 5990 nM
IC50 [1]: 7 nM
IC50 [2]: 81 nM
IC50 [3]: 1500 nM
Structure (SMILES): O=c1c2c(Cl)cccc2nc([C@@H]2CCON2c2ncnc3scnc23)n1-c1ccccc1

IC50 [4]: 37 nM
IC50 [5]: 210 nM
IC50 [1]: 5 nM
IC50 [2]: 46 nM
IC50 [3]: 460 nM
Structure (SMILES): Cc1nc(N)nc(N2CCC[C@H]2c2nc3cccc(C(F)(F)F)c3c(=O)n2-c2ccccc2)c1C#N
